We go through two molecules from patent US9919002B2, “Methods and constructs for compound delivery” (North Carolina State University, priority 2013, dated 2018).

Data set [1] relates to MDA-MB-231 tumor xenograft. The data set can be described thus: In vivo antitumor efficacy of Gelipo formulations. To be noted: i.v. 2 mg/kg Dox every other day for 12 days. On the procedure:
All animals were treated in accordance with the Guide for Care and Use of Laboratory Animals, approved by local committee. The female nude mice were subcutaneously inoculated in the back with MDA-MB-231 cells (1×10^7 cells/mouse) for the construction of the tumor xenograft model. The tumor size was monitored by a fine caliper and the tumor volume (V) was calculated as V=L×W^2/2, where L and W were the length and width of the tumor, respectively.
When the tumor volume reached to 50 mm^3, the mice were weighed, randomly divided into 4 groups, and intravenously administrated with the Dox solution (2 mg/kg), Dox-Gelipo (2 mg/kg), Dox/TRAIL-Gelipo (2 mg/kg Dox, 0.04 mg/kg TRAIL) and saline every other day for 12 days. The tumor size and body weight of the mice were measured at the meantime. At Day 14, the tumor were harvested from the mice after euthanasia, washed by saline thrice and then fixed in 10% neutral buffered formalin (NBF). For HE staining, formalin-fixed tumors were embedded in paraffin blocks and visualized by optical microscope (DM5500B, Leica). For TUNEL apoptosis staining, the fixed tumor sections were stained by the In Situ Cell Death Detection Kit (Roche Applied Science) according to the manufacturer's protocol. Hoechst 33342 was used for nuclear nuclear counterstaining. The stained tumor slides were observed by fluorescence microscope (IX71, Olympus).

Data set [2] concerns HAase. The data set is described as follows: In vitro HAase-mediated TRAIL release and CD spectra. Type of data set: physicochemical. To be noted: TRAIL released from Gelipo versus native TRAIL. On the procedure: 500 μL of rhodamine-labeled TRAIL-loaded Gelipo (r-TRAIL-Gelipo) was incubated with 500 μL of HAase (1 mg/mL) at pH 6.5 in a 37° C. water bath. At prearranged time intervals, free r-TRAIL in the filtrate was harvested using centrifugal filters (30K MWCO) (Millipore). The fluorescence intensity of r-TRAIL was determined at 585 nm with an excitation wavelength of 552 nm by a microplate reader (Infinite M200 PRO, Tecan). Additionally, the far-UV CD spectra of the native TRAIL and the released TRAIL from TRAIL Gelipo were obtained using a Circular Dichroism Spectrometer (Aviv).

Data set [3] relates to MDA-MB-231 cells. The data set is described as follows: Cell apoptosis assay (Annexin V-FITC, TUNEL), Example 2. Format: cell-based, human. To be noted: 12 h. On the procedure: Apoptosis of MDA-MB-231 cells was detected using the Annexin V-FITC Apoptosis Detection Kit (BD Biosciences) and APO-BrdU TUNEL Assay Kit (Life Technologies), respectively. The cells (1×10^5 cells/well) were seeded in 6-well plates and cultured for 48 h. For Annexin V-FITC assay, the cells were incubated with different formulations for 12 h, including free TRAIL (2 or 20 ng/mL), TRAIL-Gelipo (20 ng/mL) with or without HAase-treatment, Dox-R8H3-L (100 ng/mL), TRAIL/Dox-Gelipo (2 ng/mL TRAIL, 100 ng/mL Dox) with HAase-treatment. For TUNEL assay, the cells were incubated with free TRAIL (2 ng/mL), Dox-R8H3-L (100 ng/mL) and TRAIL/Dox-Gelipo (2 ng/mL TRAIL, 100 ng/mL Dox) with HAase-treatment for 20 h, respectively. The following procedures were performed in accordance with the manufacturers' protocols. Finally, for Annexin V-FITC assay, the cells were analyzed by flow cytometry (BD FACSCalibur), while for TUNEL assay, the cells were observed by fluorescence microscope (IX71, Olympus).

[4] abbreviates: 20 ng/mL TRAIL, Annexin V-FITC/PI.

Consider `COc1cccc2c1C(=O)c1c(O)c3c(c(O)c1C2=O)C[C@@](O)(C(=O)CO)C[C@@H]3O[C@H]1C[C@H](N)[C@H](O)[C@H](C)O1` [Dox solution, doxorubicin], for which, in data set [1], the “Tumor growth compared with saline” value is “remarkably suppressed”.

Consider “free TRAIL: His-ILZ-TRAIL (residues 114-281) produced in E. coli; TNF-related apoptosis-inducing ligand”, for which the “Secondary structure of released TRAIL (CD spectrum)” value in data set [2] is given as “no noticeable conformational changes in the secondary structure”. The results for the Apoptosis ratio in data set [3] (2 ng/mL TRAIL) and in data set [3] (setting [4]) were 36.48% and 51.71%, respectively. In addition, in data set [3] (setting [4]), the Viability was determined as 32.30%.
